Experimental data: article PMC8251916 (Chemistry (Weinheim an Der Bergstrasse, Germany), 2021)

Tests used:
[1] = system: F10T-K+ (hairpin duplex DNA); assay: FRET melting assay, hairpin duplex DNA; assay type: binding; details: 200 nM DNA, PIPER and 3 not reliable (spectral overlap)
Description: (§1) With the library in hand, we began our investigation into G4 stabilization by conducting a Förster resonance energy transfer (FRET) melting assay to assess DNA stabilization using the procedure outlined by De Cian et. al. ^[13] […] The sequences examined (at 200 nM) were the human telomeric G4 in potassium buffer (F21T‐K^+, mixed parallel/hybrid G4) ^[14] and sodium buffer (F21T‐Na^+, antiparallel G4), ^[15] the c‐Myc promoter G‐quadruplex (FmycT‐K^+, parallel G4), ^[16] a polymorphic G4 found in T. brucei (FEBR1T‐K^+, a mixed G4 topology), ^[6b] and a hairpin duplex DNA sequence (F10T‐K^+). Together, these sequences represent targets for therapeutic intervention to treat parasitic infections, ^[6b] or cancer. ^[1b] The topology of each sequence was confirmed independently via circular dichroism (CD, Figure S1). […]
(§2) FRET melting assays were performed to assess ligand affinity for duplex and G-quadruplex
(§3) DNA. Briefly, oligonucleotides of interest were obtained labelled at the 5’ and 3’ ends with FAM (a fluorescence donor) and TAMRA (a fluorescence quencher), respectively. In the folded state, proximity of the donor and quencher result in no observed fluorescence from FAM, since energy is transferred non-radiatively to TAMRA by FRET. As the temperature is raised and the secondary structure denatures, the fluorophores move further apart and the fluorescence signal increases. From the resulting curve, the characteristic melting temperature (Tmax, also referred to as Tm) is defined as the temperature which corresponds to the maxima of the first derivative of the normalised fluorescence signal. The change in melting temperature (ΔTm) induced by the presence of a small molecule ligand provides an indication of the ligand’s ability to stabilise the DNA structure. FRET experiments were performed according to the […]
(§4) procedure reported by De Cian and co-workers[S3] on a Stratagene MX3005P. The method consisted of holding at 25 °C for 5 min, before heating at 1 °C/min to 96 °C in 1 °C increments, […]

[2] = system: HeLa cervical carcinoma cells; assay: Cytotoxicity, alamarBlue assay, HeLa; assay type: cell-based, human; details: for EC50: Homo sapiens, HeLa, 72 h incubation, alamarBlue fluorescence, read-out: absolute EC50 HeLa
Description: Doxorubicin, suramin and miltefosine were used as control compounds.[ ^6b , ^9 ] After incubation with varied concentrations of the compounds for 72 h, cell viability was measured using either an alamarBlue™ assay (for MRC5, HeLa and T. brucei) or MTT assay (for L. major). Absolute EC50 values and selectivity indexes were then calculated from dose‐response curves (Table 2 and S14). […]
Cell culture reagents were purchased from Thermo Fisher Scientific (Waltham, MA, USA) and used as-is. The Dulbecco’s Minimal Essential Medium (DMEM) formulation contained either high glucose (4.5 g/L, catalogue number: 10569) or low glucose (1 g/L, catalogue number:
10567). RPMI-1640 was provided without sodium pyruvate and with L-glutamine (catalogue number: 11875). Phosphate Buffered Saline (PBS) contained NaCl (9 g/L), KH2PO4 (144 mg/L) and Na2HPO4-7.H2O (795 mg/L, catalogue number: 10010049). TrypLE Express™ was provided with EDTA (458 mg/L) and without Phenol Red (catalogue number: 12604021).
MRC-5 cells (human lung fibroblasts) were grown in monolayer (37 °C, 5 % CO2 and 100 % humidity) in DMEM medium (1 g/L glucose), supplemented with 10% heat-inactivated Fetal Bovine Serum (hiFBS), 2 mM L-glutamine, 100 U / mL penicillin and […] streptomycin. HeLa (Human cervical carcinoma cell line) cells were maintained at 37 °C and 5 % CO2 in high glucose DMEM (4.5 g / L) supplemented with 10% hiFBS, 100 U / ml penicillin, […] streptomycin, 2 mM L-glutamine and non-essential aminoacids (1X).
Cells were cultured according to ATCC recommendations and were used for the experiments while in the exponential growth phase. […]
Cytotoxicity was measured through the alamarBlue® assay (Thermo Fisher Scientific).[S6,S13] Briefly, 5×10^3 MRC-5 or HeLa cells were seeded in 96-wells plates (100 µL / well) in the presence of increasing concentrations of compound. After 72 hrs of incubation at 37 °C, 20 µL of alamarBlue® solution (110 ng / ml) was added to each well and cells were reincubated for 4 hrs at 37 °C. Then, 50 µL of 3 % SDS were added to each well. The plate was incubated at 37 °C for an extra hour and then analysed by fluorescence with an Infinite F200 plate reader (TECAN Austria, GmbH). The excitation wavelength was fixed at 550 nm and the emission wavelength at 590 nm. The results are expressed as the concentration of compound that reduces

[3] = system: L. major; assay: Leishmaniacidal activity, MTT assay; assay type: cell-based; details: Leishmania major; 72 h incubation, MTT absorbance; read-out: absolute EC50 L. major
Description: Doxorubicin, suramin and miltefosine were used as control compounds.[ ^6b , ^9 ] After incubation with varied concentrations of the compounds for 72 h, cell viability was measured using either an alamarBlue™ assay (for MRC5, HeLa and T. brucei) or MTT assay (for L. major). Absolute EC50 values and selectivity indexes were then calculated from dose‐response curves (Table 2 and S14).
Invitrogen). L. major promastigotes (MHOM/IL/80/Friedlin) were cultured at 28 °C, 5 % CO2 in modified RPMI-1640 medium (Thermo Fisher Scientific, Waltham, MA, USA) with 10% hiFBS. Parasites were split every other day and maintained in their experimental growth phase (below 2 million parasites per mL). […]
The results are expressed as the concentration of compound that reduces cell growth by 50 % versus untreated control cells (EC50) using GraphPad Prism 7 (GraphPad Software) to fit the data to a sigmoidal curve. Data are presented as the average of three independent measurements all conducted in triplicate conditions. […]
The leishmaniacidal activity of the compounds on promastigotes L. major (MHOM/IL/80/Friedlin) was carried out as previously described.[S14] Briefly, 4 × 10^6 / mL promastigotes were incubated for 72 h at 28 °C in 96-well plates (50 µL/well) in the presence of increasing concentration of compounds. Cell proliferation was determined using an MTT-based assay (Sigma-Aldrich). Thus, after the 72 h incubation, 10 µL of MTT (5 mg/ml) were added to each well and parasites were reincubated for 4 hrs at 28 °C. Then, 50 µL of 20 % SDS were added to each well. The plate was then incubated at 37°C for 4-16 hrs and analysed using an Infinite F200 plate reader (TECAN Austria, GmbH). The absorbance was measured […]
at a wavelength of 540 nm and the EC50 was calculated as described above. Data are presented as the average of three independent measurements, all conducted in triplicate conditions. […]

[4] = system: F21T-Na+ (human telomeric G-quadruplex, antiparallel); assay: FRET melting assay, human telomeric G4 in sodium buffer; assay type: binding; details: 200 nM DNA, PIPER and 3 not reliable (spectral overlap)
Description: as §1, §2, §3, §4

[5] = 5 μM ligand, 10 mM KCl, 90 mM LiCl, 10 mM Li cacodylate
[6] = 5 μM ligand, 100 mM NaCl, 10 mM Li cacodylate

Structure (SMILES)	ΔTm F10T-K+ ([1]; 1 µM ligand)	ΔTm F10T-K+ [1, 5]	ΔTm F10T-K+ ([1]; 10 µM ligand)	EC50 [2]	EC50 [3]	ΔTm F21T-Na+ ([4]; 1 µM ligand)	ΔTm F21T-Na+ [4, 6]	ΔTm F21T-Na+ ([4]; 10 µM ligand)	SI (MRC5/HeLa) ([2]; selectivity index from EC50 values)
CN1CCN(CCCN2C(=O)c3ccc4c5c(ccc(c35)C2=O)C(=O)N(CCCN2CCN(C)CC2)C4=O)CC1 [Compound 1]	0 ± 1 °C	1±1 °C	3 ± 1 °C	0.5 ± 0.05 µM	0.47 ± 0.07 µM	–	–	–	–
CN1CCN(CCCN2C(=O)c3ccc4c5ccc6c7c(ccc(c8ccc(c3c48)C2=O)c75)C(=O)N(CCCN2CCN(C)CC2)C6=O)CC1 [Compound 3]	1 ± 1 °C	6±2 °C	13 ± 2 °C	53 ± 6.2 µM	> 100 µM	18 ± 2 °C	35±4 °C	> 40 °C	0.04
CN1CCN(CCCN2C(=O)c3ccc(Oc4ccc(C(C)(C)c5ccc(Oc6ccc7c(c6)C(=O)N(CCCN6CCN(C)CC6)C7=O)cc5)cc4)cc3C2=O)CC1 [Compound 9]	–	0±1 °C	–	29 ± 3.5 µM	> 100 µM	–	−4±1 °C	6 ± 4 °C	–
CN1CCN(CCCNC(=O)c2ccc(Oc3ccc(C(C)(C)c4ccc(Oc5ccc(C(=O)NCCCN6CCN(C)CC6)c(C(=O)NCCCN6CCN(C)CC6)c5)cc4)cc3)cc2C(=O)NCCCN2CCN(C)CC2)CC1 [Compound 11]	–	0±1 °C	1 ± 1 °C	14 ± 1 µM	18 ± 1 µM	-4 ± 1 °C	1±1 °C	9 ± 2 °C	–
